# Paper PMC12873548, “D-amino acid substitution and cyclization enhance the stability and antimicrobial activity of arginine-rich peptides” (Microbiology, 2026)
# Residues, ends and D or L forms follow the SMILES beside them.
# Columns and labels:
# P. aeruginosa (PA01) [1] = test: Inhibition of biofilm formation, crystal violet; assay type: cell-based, Pseudomonas aeruginosa; settings: P. aeruginosa PA01, M63 medium, peptides 0 to 500 µM, 24 h, 0.1% CV
# Protocol: Arginine-rich peptides were evaluated for their ability to inhibit biofilm formation of P. aeruginosa (PA01) cells. To assess this, the procedure described in the ‘Antibacterial assessment’ section for determining the MIC was adapted using M63 media (supplemented with 1 mM MgSO4 and 23 µM L-arginine). After 24 h of exposure to peptides (0 to 1 mM), flat-bottom 96-well plates were washed twice with PBS to remove any non-adherent cells. The remaining biofilm was stained with 0.1% crystal violet (CV) for 30 min at room temperature. Subsequently, the plates were washed three times to remove excess dye and left to dry overnight at room temperature. The following day, stained biofilms were solubilized using 30% glacial acetic acid, and absorbance was measured at 550 nm using a microplate reader. Biofilm inhibition was expressed as a percentage relative to control bacterial cells treated with PBS.
# E. coli (25922) = assay type: cell-based, Escherichia coli
# Protocol: (§1) The MIC of arginine-based peptides was assessed using the microbroth dilution approach. Our in vitro screening included a panel of Gram-negative bacteria, Escherichia coli (ATCC 25922 and enterohaemorrhagic O157:H7) and Pseudomonas aeruginosa (PA01 and the drug-resistant strain NCTC 13437), and Gram-positive bacteria (Staphylococcus aureus ATCC 12600). Five-millilitre overnight cultures in Lysogeny broth, prepared from single isolated colonies, were diluted to 5×10^6 c.f.u. ml^−1 mid-log phase in Mueller–Hinton (MH) broth. Next, peptide concentrations (0 to 1 mM) were serially diluted twofold in 96-well plates and incubated overnight at 37 °C with the tested bacterial strains. In each case, the MIC was determined as the lowest peptide concentration at which no detectable bacterial growth was observed, employing an absorbance-based assay using a Tecan Spark® multimode plate reader. Subsequently, 10 µl aliquots from each peptide dilution were transferred to MH agar (1.5%) plates to determine the minimum bactericidal concentration (MBC) which was assessed by establishing at which concentration no visible growth of bacteria (assessed via colony formation) on the plate was observed.
# (§2) The antimicrobial activity and structural stability of arginine-rich peptides were evaluated in the presence of human serum (20% and 50 %) and 5 µM Sequencing Grade Modified Trypsin (SGMT, Promega). Briefly, fresh human blood was collected in EDTA tubes and allowed to clot at room temperature for 1 h. Serum was then collected following centrifugation at 2,000 r.p.m. for 10 min at 4 °C. Peptides were incubated with 20%, 50% human serum and 5 µM SGMT in 50 mM Tris-HCl buffer (1 mM CaCl₂, pH 7.6) for 24 h at 37 °C. After the incubation period, the solutions were further incubated with E. coli (ATCC 25922 and O157:H7), P. aeruginosa (PA01, NCTC13437) and S. aureus (ATCC12600), and the MIC was assessed as described in the ‘Antibacterial assessment’ section. Additionally, the samples were analysed using electrospray ionization MS to monitor structural changes based on the molecular weight of the peptides.
# [2] = tested on: P. aeruginosa (PAO1) biofilms; test: Disruption of pre-established biofilms, resazurin; assay type: cell-based, Pseudomonas aeruginosa; settings: 48 h P. aeruginosa biofilm, peptide at 2× MIC, 18 h, 37 °C
# Protocol: To establish mature P. aeruginosa (PAO1) biofilms, an overnight culture was diluted to an OD600 of 0.01 in 120 µl of M63 medium (supplemented with 1 mM MgSO₄ and 23 µM L-arginine) and incubated in flat-bottom 96-well plates at 37 °C for 48 h. Afterwards, individual wells containing biofilm were rinsed three times with PBS, and 150 µl MH broth was added with either 0.5× and 2× MIC peptides. 100 µg mL^−1 resazurin was added to measure the biofilm metabolic activity for 18 h at 37 °C using a Tecan Spark® microplate reader (λex=520 nm/λem=590 nm). c.f.u. counts were established by plating aliquots of a dilution series onto MH agar followed by overnight incubation at 37 °C. Residual biofilm biomass was subsequently quantified using 0.1% CV staining.
# Three-dimensional images of biofilm communities, with and without peptide exposure, were captured using an All-in-One Fluorescence Microscope (Keyence, Japan). Pre-established biofilms in a 96-well plate were incubated with 2× MIC peptides for 3 h at 37 °C. Dual staining was performed with 5 µl of SYTO 9/PI for 30 min. Biofilm thickness was assessed through 2.0 µm optical cross-sections with 50 µm pinholes.
# [3] = tested on: Gram-positive and Gram-negative bacteria; assay type: cell-based; settings: span of MIC and MBC against both Gram-positive and Gram-negative bacteria, Table 2
# Protocol: as §1
# P. aeruginosa (PA01) [4] = assay type: cell-based, Pseudomonas aeruginosa
# Protocol: as §1, §2
# E. coli ATCC 25922 = test: Membrane integrity, PI uptake; assay type: cell-based, Escherichia coli; settings: E. coli ATCC 25922, 5 µg ml−1 PI, 1 h
# Protocol: Propidium iodide (PI) uptake was used to assess the permeabilization of the bacterial membrane upon incubation with peptides. E. coli and S. aureus cells, adjusted to an OD600 of 0.5, were placed into a 96-well plate containing 5 mM HEPES buffer (pH 7.4, supplemented with 5 mM glucose) and incubated with 5 µg ml^−1 PI for 15 min. Afterwards, different peptide concentrations were added, and PI uptake was rapidly measured every 10 min over a 1 h period using a Tecan Spark® microplate reader (λex=515 nm, λem=620 nm).
# E. coli = test: Live/dead SYTO 9/PI fluorescence imaging; assay type: cell-based, Escherichia coli; settings: mid-log phase E. coli, 2× MIC; red = damaged membranes
# [5] = tested on: P. aeruginosa (NCTC13437); assay type: cell-based, Pseudomonas aeruginosa; settings: P. aeruginosa NCTC13437 (drug-resistant); 10 µl aliquots plated on MH agar, no visible colonies
# Protocol: as §1
# P. aeruginosa (PA01) [6] = assay type: cell-based, Pseudomonas aeruginosa; settings: P. aeruginosa PA01
# Protocol: as §1
# S. aureus (12600) = assay type: cell-based, Staphylococcus aureus
# Protocol: as §1, §2
# [7] = biological target: T1, Sequencing Grade Modified Trypsin (Sus scrofa, UniProt P00761); test: Stability with trypsin by LC-MS; assay type: in vitro ADME; settings: 5 µM SGMT trypsin, 50 mM Tris-HCl, 1 mM CaCl2, pH 7.6, 24 h, 37 °C; read-out LC-MS (ESI)
# T1 construct: purchased Promega
# Protocol: as §2
# [8] = control without serum or trypsin
# [9] = peptide incubated with 5 µM SGMT trypsin in 50 mM Tris-HCl, 1 mM CaCl2, pH 7.6, 24 h at 37 °C before MIC
# [10] = peptide incubated with 20% human serum 24 h at 37 °C before MIC
# [11] = peptide incubated with 50% human serum 24 h at 37 °C before MIC
# T1 sequence (P00761 9-231): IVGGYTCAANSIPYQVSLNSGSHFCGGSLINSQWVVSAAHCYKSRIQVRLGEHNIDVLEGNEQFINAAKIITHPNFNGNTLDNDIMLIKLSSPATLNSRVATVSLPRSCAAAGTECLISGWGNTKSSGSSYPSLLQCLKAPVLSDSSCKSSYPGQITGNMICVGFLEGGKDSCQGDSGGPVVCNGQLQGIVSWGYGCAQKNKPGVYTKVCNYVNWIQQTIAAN
compound,measurement,setting,value
N=C(N)NCCC[C@@H]1NC(=O)[C@H](CCCNC(=N)N)NC(=O)[C@H](CCCNC(=N)N)NC(=O)[C@H](Cc2ccccc2)NC(=O)[C@H](Cc2ccccc2)NC(=O)[C@H](Cc2ccccc2)NC(=O)[C@H](Cc2ccccc2)NC(=O)[C@H](CCCNC(=N)N)NC1=O [CP-R4F4] (cyclo(RRRRFFFF)),"Biofilm formation (biomass, crystal violet)",P. aeruginosa (PA01) [1],lowest levels of biofilm formation at the lower concentrations
same,"MIC, Control",E. coli (25922); [8],31.25 µM
same,"MIC, Trypsin",E. coli (25922); [9],31.25 µM
same,"MIC, 20% human serum",E. coli (25922); [10],31.25 µM
same,"MIC, 50% human serum",E. coli (25922); [11],125 µM
same,Disruption of mature biofilm (resazurin metabolic activity),[2],significantly disrupted
same,MIC and MBC values over all tested strains,[3],15.62 to 250 µM
same,"MIC, Control",P. aeruginosa (PA01) [4]; [8],31.25 µM
same,"MIC, Trypsin",P. aeruginosa (PA01) [4]; [9],31.25 µM
same,"MIC, 20% human serum",P. aeruginosa (PA01) [4]; [10],31.25 µM
same,"MIC, 50% human serum",P. aeruginosa (PA01) [4]; [11],125 µM
same,"PI uptake, membrane integrity",E. coli ATCC 25922,membrane-disruptive activity
same,"Membrane damage, live/dead SYTO 9/PI staining",E. coli,high presence of red-stained cells indicative of damaged membranes
same,MBC,[5],250 µM
same,MBC,"P. aeruginosa (PA01) [6]; 10 µl aliquots plated on MH agar, no visible colonies",31.2 µM
same,MIC,"P. aeruginosa (PA01) [6]; MH broth, 5×10^6 cells, 24 h, 37 °C, absorbance 600 nm, triplicate",31.2 µM
same,"MIC, Control",S. aureus (12600); [8],62.5 µM
same,"MIC, Trypsin",S. aureus (12600); [9],62.5 µM
same,"MIC, 20% human serum",S. aureus (12600); [10],62.5 µM
same,"MIC, 50% human serum",S. aureus (12600); [11],250 µM
same,Stability with trypsin (LC chromatogram and mass spectrum),[7],appeared at the same retention time in both the absence and presence of proteases
